Laboratory results published in the NIST ThermoML archive (doi:10.1021/je9003959).

Assay: xn = mol fraction of the nth substance listed
Settings: 101 kPa, Liquid; for viscosity: Capillary tube (Ostwald / Ubbelohde) method; for speed of sound: Cylindrical cavity resonance method

CCN1CCCC1=O [1-ethyl-2-pyrrolidinone] + O
Settings	mass density [kg/m3]	speed of sound [m/s]	viscosity [mPa·s]
293 K, x1 = 0.022	1003.49	1574.8	1.593
293 K, x1 = 0.05	1010.45	1651.9	2.368
293 K, x1 = 0.1	1020.31	1711.9	4.149
293 K, x1 = 0.2	1026.26	1712.2	6.159
293 K, x1 = 0.3	1023.9	1677.6	6.189
293 K, x1 = 0.4	1022.18	1640.4	5.349
293 K, x1 = 0.5	1019.16	1610.7	4.506
293 K, x1 = 0.6	1014.04	1583.1	3.639
293 K, x1 = 0.7	1010.43	1562.1	3.13
293 K, x1 = 0.8	1006.66	1541.7	2.671
293 K, x1 = 0.9	1003.19	1526.1	2.458
293 K, x1 = 1	1000.55	1511.6	2.133
298 K, x1 = 0.022	1001.76	1580	1.433
298 K, x1 = 0.05	1007.34	1648.9	2.047
298 K, x1 = 0.1	1016.76	1699.4	3.418
298 K, x1 = 0.2	1021.82	1694.2	4.849
298 K, x1 = 0.3	1019.33	1658.6	5.029
298 K, x1 = 0.4	1016.58	1621.2	4.386
298 K, x1 = 0.5	1014.6	1591.5	3.856
298 K, x1 = 0.6	1009.45	1564	3.244
298 K, x1 = 0.7	1005.98	1542.9	2.836
298 K, x1 = 0.8	1002.26	1522.6	2.43
298 K, x1 = 0.9	998.84	1507	2.21
298 K, x1 = 1	996.24	1492.5	2.022
303 K, x1 = 0.022	999.83	1583.9	1.254
303 K, x1 = 0.05	1002.82	1645.1	1.767
303 K, x1 = 0.1	1013.12	1686.7	2.842
303 K, x1 = 0.2	1017.34	1675.8	4.088
303 K, x1 = 0.3	1014.71	1639.3	4.164
303 K, x1 = 0.4	1012.16	1601.7	3.621
303 K, x1 = 0.5	1010	1572.1	3.28
303 K, x1 = 0.6	1004.1	1544.6	2.86
303 K, x1 = 0.7	1001.5	1523.6	2.527
303 K, x1 = 0.8	997.83	1503.4	2.218
303 K, x1 = 0.9	994.48	1487.9	2.011
303 K, x1 = 1	991.93	1473.3	1.832
313 K, x1 = 0.022	995.35	1588.3	0.9966
313 K, x1 = 0.05	997.46	1634.8	1.327
313 K, x1 = 0.1	1005.63	1660.4	2.051
313 K, x1 = 0.2	1008.28	1639.1	2.879
313 K, x1 = 0.3	1005.38	1600.7	2.966
313 K, x1 = 0.4	1001.82	1562.8	2.6
313 K, x1 = 0.5	1000.71	1533.3	2.509
313 K, x1 = 0.6	995	1506	2.262
313 K, x1 = 0.7	992.48	1485.3	2.04
313 K, x1 = 0.8	988.94	1465.2	1.777
313 K, x1 = 0.9	985.71	1449.9	1.702
313 K, x1 = 1	983.26	1435.3	1.621
323 K, x1 = 0.022	989.91	1588.3	0.8044
323 K, x1 = 0.05	991.01	1622.3	1.073
323 K, x1 = 0.1	997.84	1633.2	1.358
323 K, x1 = 0.2	999.06	1602.1	2.164
323 K, x1 = 0.3	995.92	1561.9	2.234
323 K, x1 = 0.4	992.73	1523.7	2.014
323 K, x1 = 0.5	991.3	1494.4	1.986
323 K, x1 = 0.6	985.81	1467.5	1.856
323 K, x1 = 0.7	983.37	1447.1	1.67
323 K, x1 = 0.8	979.96	1427.3	1.54
323 K, x1 = 0.9	976.89	1412.2	1.435
323 K, x1 = 1	974.56	1398	1.358
